# Laboratory results published in patent US10238670B2, “9-aminomethyl minocycline compounds and methods of use thereof in urinary tract infection (UTI) treatment” (Paratek Pharmaceuticals, Inc., priority 2016, dated 2019).
# Tests used:
# human plasma protein = conditions: cited from earlier work
# [1] = test system: E. coli (ATCC 25922) biofilm; assay: MBEC assay, activity against established 24 hour biofilm; format: cell-based, Escherichia coli; conditions: 24 hours challenge
# Protocol: (§1) The MBEC™ assay (formerly the Calgary biofilm device; Innovotech Inc., Canada) is a well-established high throughput assay for assessment of anti-biofilm activity of test agents in a 96-well format. Within this assay, the biofilm is formed on the plastic pegs of the plate lid. After inoculated media is introduced to the wells of the 96-well plate, the plate is placed in a shaking incubator to generate the necessary shear force for biofilm growth on the pegs. Following a suitable incubation time, the individual biofilms can be treated with varying concentrations of test agents (challenge plate). After the desired treatment time, the remaining biofilm-associated bacteria are retrieved from the pegs through sonication (recovery plate). Serial dilution and/or plating of the recovered bacterial suspension allow for the quantification of test agents' efficacy against pre-formed biofilms. Additionally, readout of the challenge plate from the biofilm treatment can be used to determine MIC values of test agents. The absence of growth in the recovery plate indicates complete biofilm eradication and the lowest concentration of a test agent that achieves this is designated as the minimum biofilm eradication concentration (MBEC). The MBEC™ assay is also amenable to assess potential synergistic effects of combination treatments, as well as efficacy of test agents in inhibiting or inducing biofilm formation. The MBEC™ plates were inoculated with 10^7 CFU/mL of stationary phase E. coli (ATCC 25922) and incubated for 24 hours to allow formation of a robust biofilm. The individual biofilms formed on the pegs were challenged with varying concentrations of antibiotics for 24 hours, followed by recovery of the surviving bacteria. Bacterial enumeration was performed using a Most Probable Number (MPN) assay (Sutton, Journal of Validation Technology 16 (3): 35-38, 2010, incorporated herein by reference) in a 96-well format.
# [2] = test system: E. coli (ATCC 25922) biofilm; assay: MBEC assay, inhibition of biofilm formation; format: cell-based, Escherichia coli
# Protocol: as §1, with “formation.” for “formation. The MBEC™ plates were inoculated with 10^7 CFU/mL of stationary phase E. coli (ATCC 25922) and incubated for 24 hours to allow formation of a robust biofilm. The individual biofilms formed on the pegs were challenged with varying concentrations of antibiotics for 24 hours, followed by recovery of the surviving bacteria. Bacterial enumeration was performed using a Most Probable Number (MPN) assay (Sutton, Journal of Validation Technology 16 (3): 35-38, 2010, incorporated herein by reference) in a 96-well format.”
# The MBEC™ plates were inoculated with either 10^5 CFU/mL (low inoculum) or 10^7 CFU/mL (high inoculum) of stationary phase E. coli (ATCC 25922) with simultaneous addition of antibiotics to evaluate the progression of biofilm formation under antibiotic challenge. After 24 hour incubation, the bacteria were recovered and enumerated (as above). FIG. 6. […] FIG. 7.
smiles,measurement,setting,value
CN(C)c1ccc(O)c2c1C[C@H]1C[C@H]3[C@H](N(C)C)C(O)=C(C(N)=O)C(=O)[C@@]3(O)C(O)=C1C2=O [Minocycline],"human plasma protein binding, Mean","human plasma protein; human, plasma",76%
O=C(O)c1cn(C2CC2)c2cc(N3CCNCC3)c(F)cc2c1=O [ciprofloxacin],reduction of total biofilm-associated bacteria,[1]; at around MIC,did not show activity
same,reduction in bioburden,[1]; at higher concentrations,up to 5 log units
same,reduction in total bioburden of biofilm compared to control,"[2]; (approx. 15% of MIC), low inoculum",no reduction in the total bioburden
same,induction of biofilm formation,[2]; sub-MIC doses,did not induce biofilm formation
Nc1nc(-n2cc(C(=O)O)c(=O)c3cc(F)c(N4CC(O)C4)c(Cl)c32)c(F)cc1F [delafloxacin],protein bound in human plasma,human plasma protein,> 75%
Cn1nnc(-c2ccc(-c3ccc(N4C[C@H](CO)OC4=O)cc3F)cn2)n1 [tedizolid],protein bound in human plasma,human plasma protein,> 75%
